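Tested at 5 concentrations; 48 h exposure; 96-well plates; endpoints linearly interpolated, else capped at highest concentration. GI50 is the concentration that inhibits growth by half. TGI denotes the concentration required for complete inhibition of growth.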
Legend:
Experiment in all cases: NCI-60 cell line screen, 48 h
HOP-62 NSCLC = system: HOP-62 NSCLC
CCRF-CEM leukemia = system: CCRF-CEM leukemia
HT29 colon = system: HT29 colon
MOLT-4 leukemia = system: MOLT-4 leukemia
SW-620 colon = system: SW-620 colon
OVCAR-5 ovarian = system: OVCAR-5 ovarian
NCI-H226 lung = system: NCI-H226 lung
T-47D breast = system: T-47D breast
MCF7 breast = system: MCF7 breast
HL-60(TB) leukemia = system: HL-60(TB) leukemia

In the case of `O=c1cccc(Cl)[nH]1`, the TGI (HOP-62 NSCLC) is reported as over 100 µM, the TGI (CCRF-CEM leukemia) is reported as over 100 µM and the TGI (HT29 colon) is reported as over 100 µM. For the same molecule, the TGI (MOLT-4 leukemia) was over 100 µM, the TGI (SW-620 colon) was over 100 µM and the TGI (OVCAR-5 ovarian) was over 100 µM. The TGI (NCI-H226 lung) was over 100 µM, the TGI (T-47D breast) was over 100 µM and the TGI (MCF7 breast) was over 100 µM.

Molecule `COc1cc2c3c(n(CCCNCCCNCCCN)c(=O)c2cc1OC)-c1cc2c(cc1C3=O)OCO2` has a GI50 (CCRF-CEM leukemia) of 35.1 µM, a TGI (CCRF-CEM leukemia) of over 100 µM and a GI50 (HT29 colon) of 48.6 µM. For the same molecule, the TGI (HT29 colon) was over 100 µM, the GI50 (MOLT-4 leukemia) was 21.2 µM and the TGI (MOLT-4 leukemia) was over 100 µM. It also gave a GI50 (SW-620 colon) of 82.5 µM, a TGI (SW-620 colon) of over 100 µM and a GI50 (NCI-H226 lung) of over 100 µM. It also gave a TGI (NCI-H226 lung) of over 100 µM, a GI50 (HL-60(TB) leukemia) of over 100 µM and a TGI (HL-60(TB) leukemia) of over 100 µM. For the same molecule, the GI50 (T-47D breast) was over 100 µM, the TGI (T-47D breast) was over 100 µM and the GI50 (MCF7 breast) was over 100 µM. It also gave a TGI (MCF7 breast) of over 100 µM.

Molecule `COc1cc(/C=C2\SC(N3CCCCC3)=NC2=O)ccc1OCCCCCCOc1ccc(/C=C2\SC(N3CCCCC3)=NC2=O)cc1OC` has a GI50 (HOP-62 NSCLC) of 4.05 µM, a TGI (HOP-62 NSCLC) of 16.3 µM and a GI50 (HT29 colon) of 8.38 µM. The TGI (HT29 colon) was 30.4 µM, the GI50 (MOLT-4 leukemia) was 17.4 µM and the TGI (MOLT-4 leukemia) was over 100 µM. The GI50 (SW-620 colon) was 14.9 µM, the TGI (SW-620 colon) was 48.3 µM and the GI50 (OVCAR-5 ovarian) was 22.9 µM. For the same molecule, the TGI (OVCAR-5 ovarian) was 59.1 µM, the GI50 (NCI-H226 lung) was 5.18 µM and the TGI (NCI-H226 lung) was 22 µM. It also gave a GI50 (HL-60(TB) leukemia) of 14.6 µM, a TGI (HL-60(TB) leukemia) of 84.4 µM and a GI50 (T-47D breast) of 8.9 µM. For the same molecule, the TGI (T-47D breast) was 44.5 µM, the GI50 (MCF7 breast) was 15.1 µM and the TGI (MCF7 breast) was 44.9 µM.

In the case of `Cc1cc(C)nc(NS(=O)(=O)c2ccc(Nc3c4ccccc4nc4c(C(=O)NCCN(C)C)cccc34)cc2)n1`, the TGI (HOP-62 NSCLC) is reported as 14.5 µM, the TGI (CCRF-CEM leukemia) is reported as 22.6 µM and the TGI (HT29 colon) is reported as 14.3 µM. The TGI (MOLT-4 leukemia) was 1.61 µM, the TGI (SW-620 colon) was 15.2 µM and the TGI (OVCAR-5 ovarian) was 29.4 µM. The TGI (NCI-H226 lung) was 6.21 µM and the TGI (HL-60(TB) leukemia) was 4.82 µM.

For `Cc1cc(Cl)ccc1NC(=O)C1C(=O)N(c2ccc(Cl)cc2C)C(=O)/C1=N\NC(N)=S` (stereo not drawn), the TGI (HOP-62 NSCLC) was 48.5 µM, the TGI (CCRF-CEM leukemia) was 56.5 µM and the TGI (HT29 colon) was 35.4 µM. It also gave a TGI (MOLT-4 leukemia) of 38 µM, a TGI (SW-620 colon) of over 100 µM and a TGI (OVCAR-5 ovarian) of 53.9 µM. It also gave a TGI (HL-60(TB) leukemia) of 51.8 µM.

Reference: PubChem BioAssay (NCI)
